The target in the assay is RAF proto-oncogene serine/threonine-protein kinase (Homo sapiens, UniProt P04049). As to the kind of experiment: Inhibition of RAF1 (unknown origin) incubated for 40 mins by scintillation counting analysis.
Chain of RAF proto-oncogene serine/threonine-protein kinase (P04049 whole entry): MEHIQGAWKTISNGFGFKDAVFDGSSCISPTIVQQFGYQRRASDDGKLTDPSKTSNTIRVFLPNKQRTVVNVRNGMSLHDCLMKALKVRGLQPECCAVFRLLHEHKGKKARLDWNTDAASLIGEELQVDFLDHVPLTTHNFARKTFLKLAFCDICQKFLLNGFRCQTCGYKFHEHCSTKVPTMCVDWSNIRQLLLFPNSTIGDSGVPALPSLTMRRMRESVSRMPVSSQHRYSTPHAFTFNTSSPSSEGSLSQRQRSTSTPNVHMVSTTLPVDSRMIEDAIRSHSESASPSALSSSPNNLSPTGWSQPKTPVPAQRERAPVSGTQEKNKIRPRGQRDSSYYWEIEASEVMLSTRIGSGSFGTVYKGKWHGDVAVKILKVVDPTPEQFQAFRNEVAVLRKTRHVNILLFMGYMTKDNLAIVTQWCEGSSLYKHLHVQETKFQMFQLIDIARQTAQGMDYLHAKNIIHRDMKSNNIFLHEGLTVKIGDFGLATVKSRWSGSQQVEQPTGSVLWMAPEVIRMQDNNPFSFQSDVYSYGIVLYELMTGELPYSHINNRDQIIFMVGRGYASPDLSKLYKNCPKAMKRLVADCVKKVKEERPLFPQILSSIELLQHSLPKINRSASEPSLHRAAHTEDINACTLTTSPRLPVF

Broadly, the IC50 is the concentration that inhibits the measured activity by half. A lower IC50 goes with higher potency. `O=C(NCCNc1nccc(-c2c(-c3cccc(O)c3)nc3sccn23)n1)c1ccccc1` displayed a 50% inhibitory concentration (IC50) of 8.2 nM.

The values above are taken from BindingDB's records for PubMed 33316752 (University of Sharjah, 2021).
